Tested on: CAGA-TGF-β activity reporter cells
Test: Test using TGF-β activity reporter cell (luciferase test)
Format: cell-based
Details: added alone: TGF-β 50 ng/ml, pro-TGF-β1 200 ng/ml, overnight, FIG. 6
Description: Method: CAGA-TGF-β activity reporter cells were plated (12-well plate) until the confluence reached 65%. Samples and reagents were added to different wells, respectively. The grouping and concentration were as follows. Group 1:2 ml of TGF-β (50 ng/ml); Group 2:2 ml of pro-TGF-β1 (200 ng/ml); Group 3:2 ml of LLC (200 ng/ml)+S-HA-9 (20 ug/ml); Group 4:2 ml of LLC (200 ng/ml)+PBS (1×); Group 5:2 ml of LLC (200 ng/ml)+S-HA-PBA-1 (20 ug/ml), the cells were stimulated overnight, the samples were collected, and cell lysate was obtained for luciferase test.

In the case of “TGF-β: transforming growth factor-β, control group 1 of the reporter cell test (50 ng/ml)”, the “production of active TGF-β (reporter control groups)” value is reported as “stimulated the production of active TGF-β”.

With “proTGF-β: pro-TGF-β1, control group 2 of the reporter cell test (200 ng/ml)” the “production of active TGF-β (reporter control groups)” value was “stimulated the production of a very small amount of active TGF-β”.

From patent publication US20250009783A1, “SULFONATED HYALURONIC ACID COMPOUND, PREPARATION METHOD THEREFOR AND APPLICATION THEREOF” (UNIVERSITY OF MACAU, priority 2021, published 2025)
